Test results from patent US20250228835A1, “PYRIDINYLOXYPYRIDINES AND RELATED COMPOUNDS AND THEIR USE IN TREATING MEDICAL CONDITIONS” (Rectify Pharmaceuticals, Inc., priority 2024, published 2025).
pEC50: −log10 of the molar value.

Assays:
[1] = biological target: T1, ABCB4 WT (Homo sapiens, UniProt P21439); test: ABCB4 WT assay: HiBit protein expression; assay type: cell-based; details: HEK-293 cells stably expressing HiBit-tagged ABCB4 WT; 24 h treatment; top concentration 30 μM; read-out: ABCB4 WT EC50, Emax
T1 construct: expressed in transfected cells
Description: To assess activity against ABCB4, compounds were screened in an assay measuring protein expression, using cells transfected with cDNA encoding HiBit-tagged ABCB4 wild-type.
(§1) Described here is an assay for measuring the expression of the wild type of human ABCB4 (henceforth referred to as ABCB4 WT) and the use of this assay to measure the efficacy of compounds to increase the expression of ABCB4 WT. The assay was designed to characterize the efficacy and potency of compounds to increase the expression of ABCB4 WT by calculating an Emax and EC50 value. HEK-293 cells stably expressing ABCB4 WT (HEK-293/ABCB4 WT) were used for this assay and were maintained at 37° C. (5% CO2, humidified) in Dulbecco's Modified Eagle Medium (DMEM, Gibco product #12100) supplemented with 10% fetal bovine serum (Biosera product #FB-1058/500), 1% PenStrep (HDB product #15140-122), and 0.5 mg/mL puromycin (Gibco product #A11138-03). For the assay, the HEK-293/ABCB4 WT cells were seeded in white/opaque 384-well plates (Corning product #3570) at 10,000 cells/well in 20 μl growth medium and allowed to settle for 4 hours at 37° C. (5% CO2, humidified). Compound serial dilutions are prepared in DMSO as three hundred times (333×) the final concentration and using a dilution factor of 3 using Bravo (Agilent). After the four-hour incubation period, 60 nL of DMSO solutions are transferred to the assay plate.
(§2) Dose response curves include eleven doses with the top final concentration at 30 μM in 0.3% DMSO. Liquid handling is performed with ECHO 550 Acoustic Liquid Handler (Labcyte). After addition of compound treatment, cells are incubated for 24 hours at 37° C. (5% CO2, humidified). After the 24-hour treatment, plates are allowed to equilibrate to room temperature for 10 minutes. Using Dragonfly Automated Liquid Handler (TTP LabTech), 20 μl of HiBit lytic assay reagent (Promega, product #N3040), which is prepared according to manufacturer's instructions, is added to each well. The plates are rotated at room temperature for 2 minutes and incubated for 1 hour at 25° C. before luminescent signal is acquired using an EnVision Multimode Plate Reader (PerkinElmer).
Results are presented below in Table 5 for ABCB4 WT.

[2] = biological target: T2, ABCD2 WT (Homo sapiens, UniProt Q9UBJ2); test: D2 correction dose-response assay: ABCD2 WT HiBit protein expression; assay type: cell-based; details: HEK-293/ABCD2 WT cells, 24 hours treatment, HiBit luminescence; class combines EC50 and Mean MaxAct (fold); read-out: ABCD2 WT EC50, Emax
T2 construct: expressed in transfected cells
T2 sequence (Q9UBJ2 1-740): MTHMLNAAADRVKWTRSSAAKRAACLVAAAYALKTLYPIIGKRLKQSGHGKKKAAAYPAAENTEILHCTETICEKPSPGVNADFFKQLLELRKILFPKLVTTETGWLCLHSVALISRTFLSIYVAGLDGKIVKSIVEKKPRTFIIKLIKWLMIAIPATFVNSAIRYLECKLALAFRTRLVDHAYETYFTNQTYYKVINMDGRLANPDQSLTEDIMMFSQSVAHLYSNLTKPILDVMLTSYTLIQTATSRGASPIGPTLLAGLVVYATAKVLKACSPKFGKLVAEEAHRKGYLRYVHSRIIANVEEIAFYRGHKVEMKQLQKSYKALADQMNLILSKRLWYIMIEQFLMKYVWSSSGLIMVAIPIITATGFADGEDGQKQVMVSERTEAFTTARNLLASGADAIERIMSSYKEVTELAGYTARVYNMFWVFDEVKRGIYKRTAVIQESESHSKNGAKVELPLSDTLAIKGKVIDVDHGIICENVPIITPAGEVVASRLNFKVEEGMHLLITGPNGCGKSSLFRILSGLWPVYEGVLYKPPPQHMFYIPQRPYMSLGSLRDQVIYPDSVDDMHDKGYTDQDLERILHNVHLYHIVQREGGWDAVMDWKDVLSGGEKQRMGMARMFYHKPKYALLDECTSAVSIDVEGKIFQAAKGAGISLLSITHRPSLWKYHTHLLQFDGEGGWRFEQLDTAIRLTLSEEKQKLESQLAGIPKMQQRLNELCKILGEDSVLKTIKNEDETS
Method: Exemplary compounds were evaluated in a D2 correction dose-response assay.
as §1, with “To assess activity against ABCD2, the compounds were screened in an assay measuring protein expression, using cells transfected with cDNA encoding HiBit-tagged ABCD2 wild-type. Here we describe” for “Described here is”, “ABCD2” for “ABCB4”, “(HEK-293/ABCD2” for “(HEK-293/ABCB4”, “HEK-293/ABCD2” for “HEK-293/ABCB4”
as §2

T1 sequence (P21439 whole entry): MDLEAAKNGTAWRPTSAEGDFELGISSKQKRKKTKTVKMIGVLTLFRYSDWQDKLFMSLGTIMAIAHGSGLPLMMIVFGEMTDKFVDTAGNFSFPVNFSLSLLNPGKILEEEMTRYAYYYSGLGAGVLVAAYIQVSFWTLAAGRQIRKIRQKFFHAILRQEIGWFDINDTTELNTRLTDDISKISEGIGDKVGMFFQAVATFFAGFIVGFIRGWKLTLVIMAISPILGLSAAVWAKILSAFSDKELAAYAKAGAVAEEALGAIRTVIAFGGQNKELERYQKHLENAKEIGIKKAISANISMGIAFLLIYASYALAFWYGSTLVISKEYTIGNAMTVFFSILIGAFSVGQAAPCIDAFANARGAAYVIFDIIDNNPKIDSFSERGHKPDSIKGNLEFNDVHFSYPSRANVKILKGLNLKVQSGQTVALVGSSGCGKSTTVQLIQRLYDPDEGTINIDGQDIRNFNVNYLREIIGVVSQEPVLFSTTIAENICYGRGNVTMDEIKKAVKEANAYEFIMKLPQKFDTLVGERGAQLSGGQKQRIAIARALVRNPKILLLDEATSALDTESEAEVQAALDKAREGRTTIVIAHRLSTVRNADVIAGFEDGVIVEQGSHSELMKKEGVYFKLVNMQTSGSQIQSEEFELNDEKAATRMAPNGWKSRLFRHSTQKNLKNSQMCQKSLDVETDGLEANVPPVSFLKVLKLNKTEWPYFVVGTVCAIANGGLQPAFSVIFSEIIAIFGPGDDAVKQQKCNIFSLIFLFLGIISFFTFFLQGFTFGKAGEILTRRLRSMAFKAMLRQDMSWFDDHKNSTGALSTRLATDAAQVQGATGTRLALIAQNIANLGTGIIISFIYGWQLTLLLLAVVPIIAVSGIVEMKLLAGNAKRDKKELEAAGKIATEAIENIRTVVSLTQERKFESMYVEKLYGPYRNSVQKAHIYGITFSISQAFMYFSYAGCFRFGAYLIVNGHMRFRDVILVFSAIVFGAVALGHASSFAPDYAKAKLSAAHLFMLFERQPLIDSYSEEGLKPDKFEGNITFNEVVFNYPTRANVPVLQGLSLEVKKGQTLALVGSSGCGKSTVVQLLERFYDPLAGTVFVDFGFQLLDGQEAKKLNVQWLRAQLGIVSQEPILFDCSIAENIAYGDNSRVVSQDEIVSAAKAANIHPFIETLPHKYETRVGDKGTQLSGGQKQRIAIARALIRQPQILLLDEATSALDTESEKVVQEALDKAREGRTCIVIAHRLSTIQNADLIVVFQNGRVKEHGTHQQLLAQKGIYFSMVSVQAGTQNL

| SMILES | pEC50 [1] | pEC50 [2] |
| --- | --- | --- |
| Cc1cc(C(F)(F)F)nc(C2CC2)c1Oc1nc(-c2cncc(C#N)c2)ccc1N=S(C)(C)=O [Compound I-286] | ≤ 4.60 | > 6.00 |
| Cc1cc(C(F)(F)F)nc(C2CC2)c1Oc1nc(-c2cncc(C#N)c2)ccc1S(=N)(=O)C1CC1 (centres unmarked) [Compound I-287] | > 4.60 | < 4.60 |
| Cc1cc(C(F)F)nc(C2CC2)c1Oc1nc(-c2cncc(C#N)c2)ccc1S(=O)(=O)NC1CC1 [Compound I-288] | 5.00 to 6.00 | 5.00 to 6.00 |
| CNS(=O)(=O)c1ccc(-c2cncc(C#N)c2)nc1Oc1c(C)cc(C(F)F)nc1C1CC1 [Compound I-289] | 4.60 to 5.00 | 5.00 to 6.00 |
| Cc1cc(C(F)(F)F)nc(C2CC2)c1Oc1nc(-c2cncc(C#N)c2)ccc1S(=O)(=O)N1CCOCC1 [Compound I-290] | ≤ 4.60 | < 4.60 |
| Cc1cc(C(F)(F)F)nc(C2CC2)c1Oc1nc(-c2cncc(C#N)c2)ccc1S(=O)(=O)N(C)C [Compound I-291] | > 6.00 | 5.00 to 6.00 |
| Cc1nc(C(F)(F)F)nc(C2CC2)c1Oc1nc(-c2cncc(C#N)c2)ccc1S(=O)(=O)NC1CC1 [Compound I-292] | 5.00 to 6.00 | 5.00 to 6.00 |
| CNS(=O)(=O)c1ccc(-c2cncc(C#N)c2)nc1Oc1c(C)cc(C(F)(F)F)nc1C1CC1 [Compound I-293] | > 6.00 | 5.00 to 6.00 |
| Cc1cc(C(F)(F)F)nc(C2CC2)c1Oc1nc(-c2cncc(C#N)c2)ccc1S(=O)(=O)Nc1cccnc1 [Compound I-294] | 4.60 to 5.00 | > 6.00 |
| Cc1cc(C(F)(F)F)nc(C2CC2)c1Oc1nc(-c2cccc(C#N)c2)ccc1S(=N)(=O)C1CC1 (centres unmarked) [Compound I-295] | ≤ 4.60 | 4.60 to 5.00 |
| Cc1cc(C(F)(F)F)nc(C2CC2)c1Oc1nc(-c2cncc(C#N)c2)ccc1S(=N)(=O)c1cccnn1 (centres unmarked) [Compound I-296] | > 6.00 | > 6.00 |
| Cc1cc(C(F)(F)F)nc(C2CC2)c1Oc1nc(-c2cncc(C#N)c2)ccc1S(=N)(=O)c1cnccn1 (centres unmarked) [Compound I-297] | 5.00 to 6.00 | 5.00 to 6.00 |
| CNS(=O)(=O)c1ccc(-c2cncc(C#N)c2)nc1Oc1c(C)cc(C2CC2)nc1C1CC1 [Compound I-298] | ≤ 4.60 | 5.00 to 6.00 |
| Cc1sc(C2CC2)nc1Oc1nc(-c2cncc(C#N)c2)ccc1NS(C)(=O)=O [Compound I-299] | > 6.00 | > 6.00 |
| Cc1nc(Oc2nc(-c3cncc(C#N)c3)ccc2NS(C)(=O)=O)c(C2CC2)s1 [Compound I-300] | > 6.00 | > 6.00 |
| Cc1cc(C(F)(F)F)nc(C2CC2)c1Oc1nc(-c2cncc(C#N)c2)ccc1S(=N)(=O)C1CCOCC1 (centres unmarked) [Compound I-301] | ≤ 4.60 | 4.60 to 5.00 |

| SMILES | pEC50 [1] | pEC50 [2] |
| --- | --- | --- |
| Cc1cc(C(F)(F)F)nc(C2CC2)c1Oc1nc(-c2cncc(C#N)c2)ccc1S(=N)(=O)c1ccccn1 (centres unmarked) [Compound I-302] | 4.60 to 5.00 | 4.60 to 5.00 |
| Cc1nc(C(F)(F)F)nc(C2CC2)c1Oc1nc(-c2cncc(C#N)c2)ccc1S(=N)(=O)C1CC1 (centres unmarked) [Compound I-303] | ≤ 4.60 | < 4.60 |
| Cc1cc(C(F)(F)F)nc(C2CC2)c1Oc1nc(-c2cncc(C#N)c2)ccc1S(=N)(=O)c1cccnc1 (centres unmarked) [Compound I-304] | 5.00 to 6.00 | > 6.00 |
| Cc1cc(C(F)(F)F)nc(C2CC2)c1Oc1nc(-c2cncc(C#N)c2)ccc1S(=O)(=O)NC1COC1 [Compound I-305] | ≤ 4.60 | 5.00 to 6.00 |
| Cc1cc(C(F)(F)F)nc(C2CC2)c1Oc1nc(-c2cncc(C#N)c2)ccc1S(=O)(=O)NC1CCOCC1 [Compound I-306] | ≤ 4.60 | 5.00 to 6.00 |
| Cc1cc(C)c(Oc2nc(-c3c[nH]c(=O)c(C#N)c3)ccc2NS(C)(=O)=O)c(C)n1 [Compound I-307] | ≤ 4.60 | 5.00 to 6.00 |
| CNS(=O)(=O)c1ccc(-c2cncc(C#N)c2)nc1Oc1nc(C2CC2)sc1C [Compound I-308] | > 4.60 | < 4.60 |
| Cc1nc(C(F)(F)F)nc(C2CC2)c1Oc1nc(-c2cncc(C#N)c2)ccc1S(=O)(=O)Nc1cnn(C)c1 [Compound I-309] | > 6.00 | 5.00 to 6.00 |
| Cc1nc(C(F)(F)F)nc(C2CC2)c1Oc1nc(-c2cncc(C#N)c2)ccc1S(=O)(=O)Nc1cccnc1 [Compound I-310] | ≤ 4.60 | 5.00 to 6.00 |
| Cc1cc(C)[n+]([O-])c(C)c1Oc1nc(-c2cncc(C#N)c2)ccc1NS(C)(=O)=O [Compound I-311] | 5.00 to 6.00 | 5.00 to 6.00 |
| CNS(=O)(=O)c1ccc(-c2cncc(C#N)c2)nc1Oc1nc(C)sc1C1CC1 [Compound I-312] | ≤ 4.60 | < 4.60 |
| CNS(=O)(=O)c1ccc(-c2cncc(C#N)c2)nc1Oc1c(C)nc(C(F)F)nc1C1CC1 [Compound I-313] | 5.00 to 6.00 | < 4.60 |
| Cc1nc(C(F)F)nc(C2CC2)c1Oc1nc(-c2cncc(C#N)c2)ccc1S(=O)(=O)NC1CC1 [Compound I-314] | 5.00 to 6.00 | < 4.60 |
| CNS(=O)(=O)c1ccc(-c2cncc(C#N)c2)nc1Oc1c(C)nc(C(F)(F)F)nc1C1CC1 [Compound I-315] | ≤ 4.60 | 4.60 to 5.00 |
| Cc1cc(C)c(Oc2nc(-c3cccc(C#N)c3)ccc2S(=N)(=O)C2CC2)c(C)n1 (centres unmarked) [Compound I-316] | 5.00 to 6.00 | 4.60 to 5.00 |
